System: not listed separately
Assay: Metabolic stability in human liver microsomes assessed as intrinsic clearance at 1 uM incubated for 60 mins by LC-MS/MS analysis
Assay type: ADME, Microsome
Conditions: read-out: CLH

| SMILES | CLint scaled at 1 µM [mL/min/kg] |
| --- | --- |
| COc1ccc(N(C)C(=O)[C@H](Cc2ccccc2)NC(=O)CN2CCN(S(=O)(=O)c3ccc(N)cc3)CC2=O)cc1 | 344 |

System: not listed separately
Assay: Selectivity ratio of EC50 for wild type HIV-1 IIIB infected in human MT4 cells to EC50 for HIV-2 ROD infected in human MT-4 cells assessed as protection against virus-induced cytopathic effect incubated for 5 days by spectrophotometric based MTT assay
Assay type: functional
Conditions: time 5 day

| SMILES | Ratio EC50 |
| --- | --- |
| CN(C(=O)[C@H](Cc1cc(F)cc(F)c1)NC(=O)Cc1c[nH]c2ccc(Br)cc12)c1ccc2scnc2c1 | 0.19 |
| CN(C(=O)[C@H](Cc1cc(F)cc(F)c1)NC(=O)Cc1c[nH]c2ccc(Cl)cc12)c1ccc2scnc2c1 | 0.1 |

Target: Structural capsid protein (Human immunodeficiency virus 1) (UniProt Q76129)
Sequence (Q76129 as listed by the source): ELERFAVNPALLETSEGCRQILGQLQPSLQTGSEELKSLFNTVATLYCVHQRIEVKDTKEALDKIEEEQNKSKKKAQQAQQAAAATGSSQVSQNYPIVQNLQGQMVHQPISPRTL
Assay: Binding affinity to hexameric HIV-1 NL4.3 capsid protein assessed as residence time by SPR assay
Conditions: filed as modulator

| SMILES | TIME [h] |
| --- | --- |
| COc1ccc(N(C)C(=O)[C@H](Cc2ccccc2)NC(=O)CN2CCN(S(=O)(=O)c3ccc(N)cc3)CC2=O)cc1 | 0.0138 |

System: MT4
Assay: Cytotoxicity against human MT4 cells assessed as reduction in cell viability incubated for 5 days by spectrophotometric based MTT assay
Assay type: functional
Conditions: MT4, 120 h, time 5 day

| SMILES | CC50 [nM] |
| --- | --- |
| CN(C(=O)[C@H](Cc1cc(F)cc(F)c1)NC(=O)Cc1c[nH]c2ccc(Br)cc12)c1ccc2scnc2c1 | 23400 |
| CN(C(=O)[C@H](Cc1cc(F)cc(F)c1)NC(=O)Cc1c[nH]c2ccc(Cl)cc12)c1ccc2scnc2c1 | 23700 |
| COc1ccc(N(C)C(=O)[C@H](Cc2ccccc2)NC(=O)CN2CCN(S(=O)(=O)c3ccc(N)cc3)CC2=O)cc1 | 114000 |

Target: Structural capsid protein (Human immunodeficiency virus 1) (UniProt Q76129)
Assay: Binding affinity to hexameric HIV-1 NL4.3 capsid protein assessed as dissociation rate (Koff) by SPR assay
Conditions: filed as modulator

| SMILES | K |
| --- | --- |
| COc1ccc(N(C)C(=O)[C@H](Cc2ccccc2)NC(=O)CN2CCN(S(=O)(=O)c3ccc(N)cc3)CC2=O)cc1 | 2.01 10^-2/s |

System: not listed separately
Assay: Selectivity index, ratio of CC50 for human MT4 cells to EC50 for HIV-2 ROD infected in human MT-4 cells
Assay type: toxicity, cell-based
Conditions: read-out: Selectivity Index

| SMILES | selectivity ratio |
| --- | --- |
| CN(C(=O)[C@H](Cc1cc(F)cc(F)c1)NC(=O)Cc1c[nH]c2ccc(Br)cc12)c1ccc2scnc2c1 | 137 |
| CN(C(=O)[C@H](Cc1cc(F)cc(F)c1)NC(=O)Cc1c[nH]c2ccc(Cl)cc12)c1ccc2scnc2c1 | 150 |

System: Human immunodeficiency virus 2
Assay: Anti-HIV activity against HIV-2 ROD infected in human MT-4 cells assessed as protection against virus-induced cytopathic effect incubated for 5 days by spectrophotometric based MTT assay
Assay type: functional, organism-based
Conditions: Human immunodeficiency virus 2, ROD, MT4, 120 h

| SMILES | EC50 [nM] |
| --- | --- |
| CN(C(=O)[C@H](Cc1cc(F)cc(F)c1)NC(=O)Cc1c[nH]c2ccc(Br)cc12)c1ccc2scnc2c1 | 171 |
| CN(C(=O)[C@H](Cc1cc(F)cc(F)c1)NC(=O)Cc1c[nH]c2ccc(Cl)cc12)c1ccc2scnc2c1 | 158 |
| COc1ccc(N(C)C(=O)[C@H](Cc2ccccc2)NC(=O)CN2CCN(S(=O)(=O)c3ccc(N)cc3)CC2=O)cc1 | 13.6 |

Target: Structural capsid protein (Human immunodeficiency virus 1) (UniProt Q76129)
Assay: Binding affinity to monomeric HIV-1 NL4.3 capsid protein assessed as residence time by SPR assay
Conditions: filed as modulator

| SMILES | TIME [h] |
| --- | --- |
| COc1ccc(N(C)C(=O)[C@H](Cc2ccccc2)NC(=O)CN2CCN(S(=O)(=O)c3ccc(N)cc3)CC2=O)cc1 | 0.00118 |

Target: Structural capsid protein (Human immunodeficiency virus 1) (UniProt Q76129)
Assay: Binding affinity to monomeric HIV-1 NL4.3 capsid protein assessed as dissociation rate (Koff) by SPR assay
Conditions: filed as modulator

| SMILES | K |
| --- | --- |
| COc1ccc(N(C)C(=O)[C@H](Cc2ccccc2)NC(=O)CN2CCN(S(=O)(=O)c3ccc(N)cc3)CC2=O)cc1 | 2.34 10^-1/s |

System: Human immunodeficiency virus 1
Assay: Anti-HIV activity against wild type HIV-1 IIIB infected in human MT4 cells assessed as protection against virus-induced cytopathic effect incubated for 5 days by spectrophotometric based MTT assay
Assay type: functional, organism-based
Conditions: Human immunodeficiency virus 1, IIIB, MT4, 120 h

| SMILES | EC50 [nM] |
| --- | --- |
| CN(C(=O)[C@H](Cc1cc(F)cc(F)c1)NC(=O)Cc1c[nH]c2ccc(Br)cc12)c1ccc2scnc2c1 | 32.6 |
| CN(C(=O)[C@H](Cc1cc(F)cc(F)c1)NC(=O)Cc1c[nH]c2ccc(Cl)cc12)c1ccc2scnc2c1 | 16.3 |

System: not listed separately
Assay: Selectivity index, ratio of CC50 for human MT4 cells to EC50 for wild type HIV-1 IIIB infected in human MT4 cells
Assay type: toxicity, cell-based
Conditions: read-out: Selectivity Index

| SMILES | selectivity ratio |
| --- | --- |
| CN(C(=O)[C@H](Cc1cc(F)cc(F)c1)NC(=O)Cc1c[nH]c2ccc(Br)cc12)c1ccc2scnc2c1 | 718 |
| CN(C(=O)[C@H](Cc1cc(F)cc(F)c1)NC(=O)Cc1c[nH]c2ccc(Cl)cc12)c1ccc2scnc2c1 | 1450 |

Reference: ChEMBL document CHEMBL6083251, “"Pseudosubstrate Envelope"/Free Energy Perturbation-Guided Design and Mechanistic Investigations of Benzothiazole HIV Capsid Modulators with High Ligand Efficiency” (J Med Chem, 2024)
